From ChEMBL document CHEMBL1153907, “Synthesis and biological evaluation of C-12 triazole and oxadiazole analogs of salvinorin A” (Bioorg Med Chem Lett, 2009)
pEC50, pKi: −log10 of the molar value.

Legend:
Mu-type opioid receptor = Mu-type opioid receptor (Rattus norvegicus, UniProt P33535); assay: Displacement of [3H]diprenorphine from rat mu opioid receptor expressed in CHO cells; assay type: cell-based
[1] = target: Delta-type opioid receptor (Mus musculus, UniProt P32300); assay: Displacement of [3H]diprenorphine from mouse delta opioid receptor expressed in CHO cells; assay type: cell-based
Delta-type opioid receptor, sequence (P32300 whole entry): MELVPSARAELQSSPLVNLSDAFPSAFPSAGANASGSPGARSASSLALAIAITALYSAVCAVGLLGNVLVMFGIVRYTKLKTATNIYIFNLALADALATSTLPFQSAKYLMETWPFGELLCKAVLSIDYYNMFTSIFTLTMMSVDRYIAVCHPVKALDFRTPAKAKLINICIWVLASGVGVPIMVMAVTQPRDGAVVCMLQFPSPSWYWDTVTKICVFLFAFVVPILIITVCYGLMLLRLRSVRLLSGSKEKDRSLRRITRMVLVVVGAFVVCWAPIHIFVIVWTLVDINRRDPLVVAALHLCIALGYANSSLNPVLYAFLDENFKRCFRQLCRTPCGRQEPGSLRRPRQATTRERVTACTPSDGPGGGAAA

[2] = target: T1, Kappa-type opioid receptor (Homo sapiens, UniProt P41145); assay: Displacement of [3H]diprenorphine from human kappa opioid receptor expressed in CHO cells; assay type: cell-based
T1 sequence (P41145 whole entry): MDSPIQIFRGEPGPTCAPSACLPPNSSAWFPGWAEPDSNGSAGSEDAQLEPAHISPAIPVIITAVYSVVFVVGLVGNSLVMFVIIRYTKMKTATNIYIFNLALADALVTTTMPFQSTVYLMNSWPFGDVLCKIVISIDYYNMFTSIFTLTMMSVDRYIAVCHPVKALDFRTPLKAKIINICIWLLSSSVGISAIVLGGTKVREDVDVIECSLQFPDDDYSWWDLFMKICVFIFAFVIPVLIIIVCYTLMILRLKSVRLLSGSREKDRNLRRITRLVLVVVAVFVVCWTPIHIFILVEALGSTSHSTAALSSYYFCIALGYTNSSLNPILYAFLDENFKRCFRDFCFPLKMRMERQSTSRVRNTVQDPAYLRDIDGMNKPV

[3] = target: T1, Kappa-type opioid receptor; assay: Displacement of [3H]diprenorphine from human kappa opioid receptor expressed in CHO cells in presence of EGTA; assay type: cell-based
[4] = target: T1, Kappa-type opioid receptor; assay: Agonist activity at human kappa opioid receptor expressed in CHO cells assessed as increase in […] [35S]GTPgammaS binding; assay type: functional, cell-based

Mu-type opioid receptor, sequence (P33535 whole entry): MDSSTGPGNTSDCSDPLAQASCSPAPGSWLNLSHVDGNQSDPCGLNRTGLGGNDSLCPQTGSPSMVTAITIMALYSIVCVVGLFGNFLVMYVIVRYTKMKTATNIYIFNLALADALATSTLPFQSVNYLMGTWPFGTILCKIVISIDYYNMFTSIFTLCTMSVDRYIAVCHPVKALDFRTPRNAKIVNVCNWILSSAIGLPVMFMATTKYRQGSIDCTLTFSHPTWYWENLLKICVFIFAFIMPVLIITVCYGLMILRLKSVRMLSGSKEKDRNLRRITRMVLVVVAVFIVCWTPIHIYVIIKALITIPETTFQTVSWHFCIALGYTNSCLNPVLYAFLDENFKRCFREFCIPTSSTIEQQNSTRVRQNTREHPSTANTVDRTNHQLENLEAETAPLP

COC(=O)[C@@H]1C[C@H](OC(C)=O)C(=O)[C@H]2[C@@]1(C)CC[C@H]1C(=O)O[C@H](c3nc(C)no3)C[C@]21C
< 6.00: pKi (Mu-type opioid receptor) | pKi [1] | pKi [2] | pKi [3] | pEC50 [4]

COC(=O)[C@@H]1C[C@H](OC(C)=O)C(=O)[C@H]2[C@@]1(C)CC[C@H]1C(=O)O[C@H](c3cn(Cc4ccccc4)nn3)C[C@]21C
< 6.00: pKi (Mu-type opioid receptor) | pKi [1] | pKi [2]

COC(=O)[C@@H]1C[C@H](OC(C)=O)C(=O)[C@H]2[C@@]1(C)CC[C@H]1C(=O)O[C@H](c3cn(COC(=O)C(C)(C)C)nn3)C[C@]21C
< 6.00: pKi (Mu-type opioid receptor) | pKi [1] | pKi [2]

COC(=O)[C@@H]1C[C@H](OC(C)=O)C(=O)[C@H]2[C@@]1(C)CC[C@H]1C(=O)O[C@H](c3cn(C)nn3)C[C@]21C
< 6.00: pKi (Mu-type opioid receptor) | pKi [1] | pKi [2]

COC(=O)[C@@H]1C[C@H](OC(C)=O)C(=O)[C@@H]2[C@@]3(C)C[C@@H](c4c[nH]nn4)OC(=O)[C@H]3CC[C@]21C
< 6.00: pKi (Mu-type opioid receptor) | pKi [1] | pKi [2]

COC(=O)[C@@H]1C[C@H](OC(C)=O)C(=O)[C@H]2[C@@]1(C)CC[C@H]1C(=O)O[C@H](c3c[nH]nn3)C[C@]21C
< 6.00: pKi (Mu-type opioid receptor) | pKi [1] | pKi [2]

CCn1cc([C@@H]2C[C@]3(C)[C@H]4C(=O)[C@@H](OC(C)=O)C[C@@H](C(=O)OC)[C@]4(C)CC[C@H]3C(=O)O2)nn1
< 6.00: pKi (Mu-type opioid receptor) | pKi [1] | pKi [2]
